Where only a bound is given, the exact number is not on record here.

Sequence of human GluN1/GluN2B NMDA receptors (Homo sapiens (Human), UniProt Q13224) (Q13224 27-1484, other chains not shown): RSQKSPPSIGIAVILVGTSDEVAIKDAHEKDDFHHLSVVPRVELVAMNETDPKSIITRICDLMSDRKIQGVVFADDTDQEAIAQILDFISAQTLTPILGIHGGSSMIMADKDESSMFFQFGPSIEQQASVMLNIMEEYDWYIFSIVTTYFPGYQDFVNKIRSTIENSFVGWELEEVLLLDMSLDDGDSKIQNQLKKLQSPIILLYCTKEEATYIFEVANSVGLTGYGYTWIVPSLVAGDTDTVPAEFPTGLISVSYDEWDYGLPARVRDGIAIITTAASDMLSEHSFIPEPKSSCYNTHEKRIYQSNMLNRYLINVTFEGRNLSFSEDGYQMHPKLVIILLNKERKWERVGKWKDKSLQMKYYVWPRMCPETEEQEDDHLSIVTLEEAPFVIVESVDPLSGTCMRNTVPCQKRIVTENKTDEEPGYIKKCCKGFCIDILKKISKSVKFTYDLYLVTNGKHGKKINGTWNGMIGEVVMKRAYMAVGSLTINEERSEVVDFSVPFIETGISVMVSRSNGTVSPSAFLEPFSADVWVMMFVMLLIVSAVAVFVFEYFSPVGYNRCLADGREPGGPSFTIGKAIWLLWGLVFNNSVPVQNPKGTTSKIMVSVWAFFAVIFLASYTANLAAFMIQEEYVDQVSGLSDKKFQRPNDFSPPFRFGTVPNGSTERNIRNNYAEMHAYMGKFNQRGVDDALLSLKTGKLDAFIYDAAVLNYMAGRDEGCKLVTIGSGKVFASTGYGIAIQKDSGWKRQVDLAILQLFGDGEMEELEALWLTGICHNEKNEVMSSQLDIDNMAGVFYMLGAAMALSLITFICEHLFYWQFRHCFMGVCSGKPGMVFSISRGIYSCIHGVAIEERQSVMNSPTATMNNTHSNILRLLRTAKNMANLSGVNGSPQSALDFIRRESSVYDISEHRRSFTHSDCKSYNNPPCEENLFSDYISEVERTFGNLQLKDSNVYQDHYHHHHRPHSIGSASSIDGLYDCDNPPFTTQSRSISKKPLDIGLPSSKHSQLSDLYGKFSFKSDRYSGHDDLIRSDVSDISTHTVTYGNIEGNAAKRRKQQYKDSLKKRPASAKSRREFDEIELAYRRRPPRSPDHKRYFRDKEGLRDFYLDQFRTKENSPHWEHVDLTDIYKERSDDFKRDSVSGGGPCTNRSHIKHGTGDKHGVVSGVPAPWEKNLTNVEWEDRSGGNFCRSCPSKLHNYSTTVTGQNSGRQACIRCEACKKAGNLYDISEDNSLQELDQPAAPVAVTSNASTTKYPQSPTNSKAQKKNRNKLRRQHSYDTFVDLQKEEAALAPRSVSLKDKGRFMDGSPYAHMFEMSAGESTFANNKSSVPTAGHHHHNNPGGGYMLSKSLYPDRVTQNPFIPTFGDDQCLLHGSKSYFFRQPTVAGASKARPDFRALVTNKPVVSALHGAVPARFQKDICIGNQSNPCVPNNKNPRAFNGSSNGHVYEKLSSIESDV
Sequence of human GluN1/GluN2B NMDA receptors (Homo sapiens (Human), UniProt Q05586+Q13224) (Q13224 27-1484, other chains not shown): as above

The first test concerns the target human GluN1/GluN2B NMDA receptors (Homo sapiens (Human), UniProt Q13224). As to the kind of experiment: Cell-based calcium flux (FLIPR) assay on cloned human NR1/NR2B ion channels expressed in mammalian cells. As to conditions: standard assay, glutamate ~EC40, 10 μM glycine. The protocol:
(§1) Effects of Test Articles on Cloned Human NR1/NR2B Ion Channels Expressed in Mammalian Cells
(§2) NMDA receptors are ion channels that are highly permeable to Ca^2+ ions, rendering it possible to monitor NMDA receptor function using cell-based calcium flux assay. In this assay, co-agonists glutamate and glycine are added to cells heterologously expressing human GluN1/GluN2B NMDA receptors to initiate cellular Ca^2+ influx. The time course of the changes in intracellular calcium is measured using a fluorescent dye and a FLIPR (Fluorometric Imaging Plate Reader) device.
(§3) Twenty four hours before measurements, the expression of the NMDA receptors in the stable cell line is induced with Tet-On inducible system in the presence of a non-selective NMDA receptor blocker. On the day of the experiment, cell culture media is carefully washed and the cells are loaded with Calcium 5 Dye Kit (Molecular Devices) in dye loading buffer containing 137 mM NaCl, 4 mM KCl, 2 mM CaCl2), 0.5 mM MgCl2(standard assay) or 1.5 mM MgCl2 (HTS assay), 10 mM HEPES and 5 mM D-glucose; pH 7.4. After 1 h incubation at the room temperature, the dye is washed away with the assay buffer (137 mM NaCl (standard assay) or 150 mM (HTS assay), 4 mM KCl (standard assay) or 3 mM (HTS assay), 2 mM CaCl2), 0.01 mM EDTA, 10 mM HEPES and 5 mM D-glucose; pH 7.4) In the FLIPR TETRA reader, various concentrations of the test compounds are added to the cells for 5 min while fluorescence is monitored to detect potential agonist activity. Next, co-agonists, glutamate and glycine are added for another 5 minutes. The concentration of glutamate corresponding to ˜EC40 (standard assay) or EC40 (HTS assay) is used to maximize the assay's signal window and ability to detect NMDA receptor antagonists and negative allosteric modulators. A saturating concentration (10 μM) of glycine is also present in the assay. A non-selective NMDA receptor antagonist, (+)MK-801 is used as a positive control for antagonist activity. The fluorescent signal in the presence of test compounds is quantified and normalized to the signal defined by the appropriate control wells.
Regarding `Cc1cc(-c2cnc3cnn(CC(=O)N(C)C)c3n2)ccc1Cl` [Example 7], the IC50 (usually the concentration at which inhibition is half-maximal) came to 117 nM.

As for `Cc1cc(-c2cnc3cnn(CC(=O)N(C)C)c3n2)ccc1Cl` [Example 8], the IC50 is 134 nM. Same read-out and setting: with `COc1ccc(-c2cnc3cnn(CC(=O)N(C)C)c3n2)cc1Cl` [Example 9, 2-[6-(3-Chloro-4-methoxy-phenyl)pyrazolo[3,4-b]pyrazin-1-yl]-N,N-dimethyl-acetamide] the figure was 584 nM. On to `CN(C)C(=O)Cn1ncc2ncc(-c3ccc(F)c(C(C)(F)F)c3)nc21` [Example 13, 2-[6-[3-(1,1-Difluoroethyl)-4-fluoro-phenyl]pyrazolo[3,4-b]pyrazin-1-yl]-N,N-dimethyl-acetamide], for which the IC50 was 146 nM.

`CN(C)C(=O)Cn1ncc2ncc(-c3ccc(Cl)c(C(C)(F)F)c3)nc21` [Example 14, 2-[6-[4-Chloro-3-(1,1-difluoroethyl)phenyl]pyrazolo[3,4-b]pyrazin-1-yl]-N,N-dimethyl-acetamide]: the concentration for half-maximal inhibition (IC50) was determined as 149 nM. With `CN(C)C(=O)Cn1ncc2ncc(-c3ccc(Cl)c(C(F)(F)F)c3)nc21` [Example 15, 2-[6-[4-Chloro-3-(trifluoromethyl)phenyl]pyrazolo[3,4-b]pyrazin-1-yl]-N,N-dimethyl-acetamide], the half-inhibitory concentration (IC50) is 272 nM. Same read-out and setting: under `CN(C)C(=O)Cn1ncc2ncc(-c3ccc(OC(F)F)c(F)c3)nc21` [Example 17, 2-[6-[4-(Difluoromethoxy)-3-fluoro-phenyl]pyrazolo[3,4-b]pyrazin-1-yl]-N,N-dimethyl-acetamide] stands 859 nM. The same measure, in the same setting: with `CN(C)C(=O)Cn1ncc2ncc(-c3ccc(OC(F)(F)F)c(Cl)c3)nc21` [Example 19, 2-[6-[3-Chloro-4-(trifluoromethoxy)phenyl]pyrazolo[3,4-b]pyrazin-1-yl]-N,N-dimethyl-acetamide] the figure was 1040 nM; with `Cc1c(F)ccc(-c2cnc3cnn(CC(=O)N(C)C)c3n2)c1F` [Example 21, 2-[6-(2,4-Difluoro-3-methyl-phenyl)pyrazolo[3,4-b]pyrazin-1-yl]-N,N-dimethyl-acetamide], 34 nM; with `CN(C)C(=O)Cn1ncc2ncc(-c3ccc(F)c(F)c3F)nc21` [Example 23, N,N-Dimethyl-2-[6-(2,3,4-trifluorophenyl)pyrazolo[3,4-b]pyrazin-1-yl]acetamide], 962 nM. Consider `CC(F)(F)c1cc(-c2cnc3cnn(CC(=O)N4CCC4)c3n2)ccc1Cl` [Example 26, 1-(Azetidin-1-yl)-2-[6-[4-chloro-3-(1,1-difluoroethyl)phenyl]pyrazolo[3,4-b]pyrazin-1-yl]ethanone], for which the IC50 came out at 140 nM. As to `O=C(Cn1ncc2ncc(-c3ccc(Cl)c(OC(F)F)c3)nc21)N1CCC1` [Example 29, 1-(Azetidin-1-yl)-2-[6-[4-chloro-3-(difluoromethoxy)phenyl]pyrazolo[3,4-b]pyrazin-1-yl]ethanone], the 50% inhibitory concentration (IC50) came to 69 nM.

Regarding `CC1CN(C(=O)Cn2nc(F)c3ncc(-c4ccc(F)c(C(F)F)c4)nc32)C1` [Example 31, 2-[6-[3-(Difluoromethyl)-4-fluoro-phenyl]-3-fluoro-pyrazolo[3,4-b]pyrazin-1-yl]-1-(3-methylazetidin-1-yl)ethanone], the IC50 is 196 nM. On to `O=C(Cn1nc(F)c2ncc(-c3ccc(F)c(C(F)F)c3)nc21)N1CC(F)C1` [Example 33, 2-[6-[3-(Difluoromethyl)-4-fluoro-phenyl]-3-fluoro-pyrazolo[3,4-b]pyrazin-1-yl]-1-(3-fluoroazetidin-1-yl)ethanone], for which the IC50 came to 77 nM. For `CC1CN(C(=O)Cn2ncc3ncc(-c4ccc(Cl)c(C(C)(F)F)c4)nc32)C1` [Example 34, 2-[6-[4-Chloro-3-(1,1-difluoroethyl)phenyl]pyrazolo[3,4-b]pyrazin-1-yl]-1-(3-methylazetidin-1-yl)ethanone], the IC50 worked out at 408 nM.

Turning to `CC(F)(F)c1cc(-c2cnc3cnn(CC(=O)N4CC(F)C4)c3n2)ccc1Cl` [Example 35, 2-[6-[4-Chloro-3-(1,1-difluoroethyl)phenyl]pyrazolo[3,4-b]pyrazin-1-yl]-1-(3-fluoroazetidin-1-yl)ethanone], the half-maximal inhibitory concentration (IC50) came to 212 nM.

Turning to `CC1CN(C(=O)Cn2ncc3ncc(-c4ccc(F)c(OC(F)F)c4)nc32)C1` [Example 36, 2-[6-[3-(Difluoromethoxy)-4-fluoro-phenyl]pyrazolo[3,4-b]pyrazin-1-yl]-1-(3-methylazetidin-1-yl)ethanone], the IC50 is 251 nM. Take `CC(F)(F)c1cc(-c2cnc3cnn(CC(=O)N4CCOCC4)c3n2)ccc1Cl` [Example 38, 2-[6-[4-Chloro-3-(1,1-difluoroethyl)phenyl]pyrazolo[3,4-b]pyrazin-1-yl]-1-morpholino-ethanone]: the IC50 was determined as 1060 nM. On to `Cc1nnc(Cn2ncc3ncc(-c4ccc(F)c(C(F)F)c4)nc32)s1` [Example 39, 2-[[6-[3-(Difluoromethyl)-4-fluoro-phenyl]pyrazolo[3,4-b]pyrazin-1-yl]methyl]-5-methyl-1,3,4-thiadiazole], for which the 50% inhibitory concentration (IC50) amounted to 162 nM.

For `Cc1cc(Cn2ncc3ncc(-c4ccc(F)c(C(F)F)c4)nc32)on1` [Example 41, 5-[[6-[3-(Difluoromethyl)-4-fluoro-phenyl]pyrazolo[3,4-b]pyrazin-1-yl]methyl]-3-methyl-isoxazole], the IC50 amounted to 337 nM. With `Fc1cncc(Cn2ncc3ncc(-c4ccc(F)c(C(F)F)c4)nc32)c1` [Example 42, 6-[3-(Difluoromethyl)-4-fluoro-phenyl]-1-[(5-fluoro-3-pyridyl)methyl]pyrazolo[3,4-b]pyrazine], the IC50 was found to be 79 nM. With `Fc1ccc(-c2cnc3cnn(Cc4cncc(Cl)c4)c3n2)cc1C(F)F` [Example 43, 1-[(5-Chloro-3-pyridyl)methyl]-6-[3-(difluoromethyl)-4-fluoro-phenyl]pyrazolo[3,4-b]pyrazine], the IC50 was 250 nM. Regarding `COc1cncc(Cn2ncc3ncc(-c4ccc(F)c(C(F)F)c4)nc32)c1` [Example 44, 6-[3-(Difluoromethyl)-4-fluoro-phenyl]-1-[(5-methoxy-3-pyridyl)methyl]pyrazolo[3,4-b]pyrazine], the IC50 was determined as 165 nM. Consider `N#Cc1cncc(Cn2nc(F)c3ncc(-c4ccc(F)c(C(F)F)c4)nc32)c1` [Example 46, 5-[[6-[3-(Difluoromethyl)-4-fluoro-phenyl]-3-fluoro-pyrazolo[3,4-b]pyrazin-1-yl]methyl]pyridine-3-carbonitrile], for which the IC50 was found to be 709 nM.

For `Fc1ccc(-c2cnc3cnn(Cc4cncc(Cl)c4)c3n2)cc1OC(F)F` [Example 47, 1-[(5-Chloro-3-pyridyl)methyl]-6-[3-(difluoromethoxy)-4-fluoro-phenyl]pyrazolo[3,4-b]pyrazine], the IC50 stood at 284 nM. On the same count and under the same terms, under `CN(C)C(=O)Cn1ncc2ncc(-c3ccc(Cl)cc3F)nc21` [Example 48, 2-(6-(4-Chloro-2-fluorophenyl)-1H-pyrazolo[3,4-b]pyrazin-1-yl)-N,N-dimethylacetamide] stands 2810 nM; under `CN(C)C(=O)Cn1ncc2ncc(-c3ccc(OC(F)(F)F)cc3)nc21` [Example 49, N,N-Dimethyl-2-(6-(4-(trifluoromethoxy)phenyl)-1H-pyrazolo[3,4-b]pyrazin-1-yl)acetamide], 2740 nM. The same measure, in the same setting: with `CN(C)C(=O)Cn1ncc2ncc(-c3cc(F)ccc3F)nc21` [Example 50, 2-(6-(2,5-Difluorophenyl)-1H-pyrazolo[3,4-b]pyrazin-1-yl)-N,N-dimethylacetamide] the figure was greater than 3000 nM; with `COc1cncc(Cn2ncc3ncc(-c4ccc(F)c(OC(F)F)c4)nc32)c1` [Example 52, 6-(3-(Difluoromethoxy)-4-fluorophenyl)-1-((5-methoxypyridin-3-yl)methyl)-1H-pyrazolo[3,4-b]pyrazine], 3770 nM.

The next test concerns the target human GluN1/GluN2B NMDA receptors (Homo sapiens (Human), UniProt Q05586+Q13224). The test is described as above. As to conditions: standard assay, glutamate ~EC40, 10 μM glycine. On the procedure: as §1, §2, §3
On to `CCC(=O)Cn1ncc2ncc(-c3ccc(F)c(C(F)F)c3)nc21` [Example 1, 1-[6-[3-(Difluoromethyl)-4-fluoro-phenyl]pyrazolo[3,4-b]pyrazin-1-yl]butan-2-one], for which the IC50 was found to be 22 nM. Still for that read-out and setting: under `O=C(Cn1ncc2ncc(-c3ccc(Cl)c(OC(F)F)c3)nc21)C1CC1` [Example 2, 2-[6-[4-Chloro-3-(difluoromethoxy)phenyl]pyrazolo[3,4-b]pyrazin-1-yl]-1-cyclopropyl-ethanone] stands 81 nM; under `CN(C)C(=O)Cn1ncc2ncc(-c3ccc(C(F)(F)F)s3)nc21` [Example 3, N,N-Dimethyl-2-[6-[5-(trifluoromethyl)-2-thienyl]pyrazolo[3,4-b]pyrazin-1-yl]acetamide], 581 nM. Still for that read-out and setting: with `Cc1cccc(-c2cnc3cnn(CC(=O)N(C)C)c3n2)c1` [Example 4, N,N-Dimethyl-2-[6-(m-tolyl)pyrazolo[3,4-b]pyrazin-1-yl]acetamide] the figure was 410 nM.
